Results on 15 compounds are retold here after PubChem BioAssay (NCI).

Where “and” joins values, the source holds several entries; their conditions need not be identical. Equal values may be shown once.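 Values below derive from 48-hour exposures of cells grown in 96-well plates, with endpoints linearly interpolated between the two concentrations bracketing the appropriate inhibition level. GI50: concentration for 50% inhibition of growth. The concentration for full growth arrest is given as TGI.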

Some test systems named below: HOP-62 NSCLC; MOLT-4 leukemia; CAKI-1 renal; HCT-116 colon; UACC-257 melanoma; MALME-3M melanoma; OVCAR-8 ovarian; IGROV1 ovarian; KM12 colon; RXF 393 renal.
Test in all cases: NCI-60 cell line screen, 48 h

In the case of `Oc1ccc(Cn2c(-c3ccc(O)cc3)nc3ccccc32)cc1`, the TGI in the assay on HOP-62 NSCLC, in the assay on MOLT-4 leukemia, in the assay on CAKI-1 renal, in the assay on HCT-116 colon, with UACC-257 melanoma and with MALME-3M melanoma was more than 100 µM each time. Also, the TGI in the assay on OVCAR-8 ovarian, in the assay with IGROV1 ovarian, in the assay on KM12 colon and with RXF 393 renal was more than 100 µM each time.

Regarding `O=C(NN1C(=O)CSC12CCC(c1ccccc1)CC2)c1[nH]c2ccc(F)cc2c1-c1ccccc1` (stereo not drawn), the GI50 was 18.3 µM in the assay with HOP-62 NSCLC; 12.2 µM in the assay on MOLT-4 leukemia; 17.5 µM in the assay with CAKI-1 renal; 14 µM in the assay with HCT-116 colon; 19.3 µM in the assay on UACC-257 melanoma; 16.2 µM in the assay with MALME-3M melanoma. Also, the GI50 in the assay on OVCAR-8 ovarian is 17.8 µM; in the assay with IGROV1 ovarian, 13 µM; with KM12 colon, 16 µM; with RXF 393 renal it was 15.3 µM. Moreover, the TGI came out at 34.7 µM in the assay on HOP-62 NSCLC; 33.7 µM in the assay on MOLT-4 leukemia; 36.6 µM in the assay on CAKI-1 renal; 27.1 µM in the assay on HCT-116 colon; 35.6 µM in the assay on UACC-257 melanoma; 30.9 µM in the assay with MALME-3M melanoma. Also, the TGI stood at 36.5 µM in the assay with OVCAR-8 ovarian, 25.7 µM in the assay on IGROV1 ovarian, 30.7 µM with KM12 colon and 29.5 µM with RXF 393 renal.

With `CCOC(=O)/C=C1\Oc2ccccc2C1(C)O` (stereo not drawn), the TGI in the assay with HOP-62 NSCLC, with MOLT-4 leukemia, in the assay on CAKI-1 renal, with HCT-116 colon, in the assay with UACC-257 melanoma and in the assay on MALME-3M melanoma was more than 100 µM in each case. Moreover, the TGI in the assay on OVCAR-8 ovarian, with IGROV1 ovarian, in the assay on KM12 colon and in the assay with RXF 393 renal was more than 100 µM throughout.

On to `NCCSC(C[N+](=O)[O-])c1ccccc1Cl` (stereo not drawn), for which the GI50 is 8.09 µM in the assay on HOP-62 NSCLC; 10.2 µM in the assay on MOLT-4 leukemia; 9.88 µM in the assay with CAKI-1 renal; 1.18 µM with HCT-116 colon; 1.91 µM in the assay with UACC-257 melanoma; 16.3 µM in the assay on MALME-3M melanoma. Besides, the GI50 was 6.43 µM in the assay on OVCAR-8 ovarian, 2.89 µM in the assay with IGROV1 ovarian, 1.82 µM in the assay with KM12 colon and 2.27 µM in the assay on RXF 393 renal. For the same compound, the TGI is 23.1 µM in the assay on HOP-62 NSCLC; more than 25.8 µM in the assay with MOLT-4 leukemia; 24.3 µM with CAKI-1 renal; 3.08 µM in the assay with HCT-116 colon; 4.31 µM in the assay with UACC-257 melanoma; 36.7 µM with MALME-3M melanoma. Further, the TGI in the assay with OVCAR-8 ovarian is 23.8 µM; in the assay on IGROV1 ovarian, 9.67 µM; in the assay with KM12 colon it was 3.42 µM; in the assay with RXF 393 renal it was 11.1 µM.

Turning to `O=c1[nH]cnc2c1ncn2CCCCO`, the TGI in the assay with HOP-62 NSCLC, with MOLT-4 leukemia, in the assay with CAKI-1 renal, in the assay with HCT-116 colon, in the assay with UACC-257 melanoma and in the assay with MALME-3M melanoma was more than 100 µM each time. Besides, the TGI in the assay on OVCAR-8 ovarian, with IGROV1 ovarian, with KM12 colon and with RXF 393 renal was more than 100 µM each time.

Regarding `CCSC(=O)C1(C)OC2CCCCC2C1=O` (stereo not drawn), the TGI in the assay on HOP-62 NSCLC, in the assay with MOLT-4 leukemia, in the assay on CAKI-1 renal, in the assay on HCT-116 colon, with UACC-257 melanoma and in the assay on MALME-3M melanoma was more than 100 µM throughout. Moreover, the TGI in the assay with OVCAR-8 ovarian, with IGROV1 ovarian, in the assay on KM12 colon and in the assay on RXF 393 renal was more than 100 µM in each case.

As for `CCCC(CCC)C(=O)OCC1(CO)C/C(=C\c2ccc(C(F)(F)F)cc2)C(=O)O1` (stereo not drawn), the GI50 is 2.34 µM with HOP-62 NSCLC; 14.3 µM with MOLT-4 leukemia; 6.16 µM in the assay with CAKI-1 renal; 12.6 µM in the assay on HCT-116 colon; 18.1 µM in the assay with UACC-257 melanoma; 16.4 µM in the assay on MALME-3M melanoma. Also, the GI50 in the assay with OVCAR-8 ovarian was 21 µM; with IGROV1 ovarian it was 14.8 µM; in the assay with KM12 colon, 13.7 µM; with RXF 393 renal it was 16.6 µM. Besides, the TGI was 15.1 µM in the assay with HOP-62 NSCLC; 31.9 µM in the assay with MOLT-4 leukemia; 21.2 µM with CAKI-1 renal; 25.6 µM in the assay on HCT-116 colon; 33.4 µM in the assay on UACC-257 melanoma; 31.7 µM in the assay with MALME-3M melanoma. Also, the TGI in the assay on OVCAR-8 ovarian stood at 41 µM; with IGROV1 ovarian it was 33 µM; in the assay with KM12 colon, 28.6 µM; in the assay on RXF 393 renal, 37.8 µM.

With `COc1cc2nncc(SCc3ccc(Cl)c(Cl)c3)c2cc1OC`, the TGI in the assay with HOP-62 NSCLC, in the assay with MOLT-4 leukemia, in the assay on CAKI-1 renal, with HCT-116 colon, in the assay with UACC-257 melanoma and with MALME-3M melanoma was more than 100 µM throughout. Besides, the TGI with OVCAR-8 ovarian, with IGROV1 ovarian, with KM12 colon and with RXF 393 renal was more than 100 µM in each case.

Take `CC(C)c1cccc(C(C)C)c1NC(=O)C(=O)C1SC(=S)NC1=O` (stereo not drawn): the TGI in the assay on HOP-62 NSCLC, in the assay with MOLT-4 leukemia, with CAKI-1 renal, in the assay on HCT-116 colon, with UACC-257 melanoma and in the assay on MALME-3M melanoma was more than 100 µM in each case. For the same compound, the TGI with OVCAR-8 ovarian, in the assay with IGROV1 ovarian, in the assay with KM12 colon and in the assay on RXF 393 renal was more than 100 µM in each case.

Turning to `N#CC(C(=O)CCC(=O)Nc1ccc(Cl)c(Cl)c1)c1ccc(Cl)cc1` (stereo not drawn), the TGI in the assay with HOP-62 NSCLC, in the assay on MOLT-4 leukemia, with CAKI-1 renal, in the assay on HCT-116 colon, in the assay on UACC-257 melanoma and in the assay with MALME-3M melanoma was more than 100 µM throughout. Also, the TGI in the assay on OVCAR-8 ovarian, in the assay on IGROV1 ovarian, in the assay on KM12 colon and in the assay with RXF 393 renal was more than 100 µM throughout.

Regarding `O=c1[nH]nc(-c2ccccc2)c2c(-c3ccccc3)onc12`, the TGI was more than 100 µM with HOP-62 NSCLC; more than 65.3 µM in the assay with MOLT-4 leukemia; more than 100 µM with CAKI-1 renal; more than 100 µM with HCT-116 colon; more than 100 µM with UACC-257 melanoma; more than 90 µM in the assay with MALME-3M melanoma. Also, the TGI in the assay on OVCAR-8 ovarian was more than 100 µM; in the assay on IGROV1 ovarian, more than 100 µM; in the assay with KM12 colon it was more than 39.6 µM; with RXF 393 renal, more than 37.9 µM. The GI50 in the assay with MOLT-4 leukemia was 0.564 µM; in the assay on CAKI-1 renal, 0.728 µM; in the assay on HCT-116 colon, 0.333 µM; in the assay with UACC-257 melanoma it was 6.7 µM; in the assay with MALME-3M melanoma, 0.751 µM; with OVCAR-8 ovarian, 0.812 µM. The values for the GI50 with IGROV1 ovarian, with KM12 colon and in the assay on RXF 393 renal were 0.615 µM, 0.389 µM and 1.19 µM, respectively.

As to `CCc1c2c(nc3ccc(OCc4ccc(B5OC(C)(C)C(C)(C)O5)cc4)cc13)-c1cc3c(c(=O)n1C2)COC(=O)[C@]3(O)CC`, the GI50 in the assay with HOP-62 NSCLC was less than 0.01 µM; in the assay with MOLT-4 leukemia, less than 0.01 µM; in the assay on CAKI-1 renal, 0.0162 µM; in the assay with HCT-116 colon, 0.0169 µM; in the assay on UACC-257 melanoma, 0.0477 µM; in the assay on MALME-3M melanoma, 0.134 µM. For the same compound, the GI50 with OVCAR-8 ovarian was 0.0296 µM; in the assay on IGROV1 ovarian it was 0.134 µM; in the assay with KM12 colon, 0.137 µM; in the assay with RXF 393 renal, 0.027 µM. The TGI was more than 100 µM with MOLT-4 leukemia; 1.22 µM in the assay with CAKI-1 renal; more than 100 µM in the assay on HCT-116 colon; 1.26 µM in the assay with UACC-257 melanoma; 3.07 µM in the assay on MALME-3M melanoma; more than 100 µM in the assay with OVCAR-8 ovarian. Moreover, the figures for the TGI in the assay with IGROV1 ovarian, with KM12 colon and with RXF 393 renal were more than 100 µM, 1.62 µM and 0.185 µM, respectively.

With `O=S(=O)(N/N=C/c1ccc(Cl)cc1Cl)c1ccccc1`, the TGI in the assay with HOP-62 NSCLC, with MOLT-4 leukemia, with CAKI-1 renal, in the assay on HCT-116 colon, with UACC-257 melanoma and in the assay with MALME-3M melanoma was more than 100 µM in each case. The TGI in the assay on OVCAR-8 ovarian, in the assay with IGROV1 ovarian, in the assay on KM12 colon and in the assay with RXF 393 renal was more than 100 µM throughout.

Regarding `Nc1nc(Cl)nc2c1ncn2[C@@H]1O[C@H](COS(N)(=O)=O)[C@@H](O)[C@H]1O`, the GI50 is 0.00684 µM in the assay with HOP-62 NSCLC; 0.0109 µM with MOLT-4 leukemia; 0.0208 µM in the assay with CAKI-1 renal; 0.0183 µM and 0.0251 µM with HCT-116 colon; 0.0233 µM and 0.0242 µM in the assay with UACC-257 melanoma; 0.0188 µM and 0.0209 µM in the assay on MALME-3M melanoma. The GI50 in the assay on OVCAR-8 ovarian was 0.0178 µM and 0.0171 µM; with IGROV1 ovarian, 0.0304 µM and 0.0308 µM; in the assay with KM12 colon, 0.0232 µM and 0.0321 µM; with RXF 393 renal, 0.019 µM and 0.0229 µM. Moreover, the TGI was 0.0333 µM with HOP-62 NSCLC; 0.391 µM and 0.0457 µM in the assay on MOLT-4 leukemia; 0.0506 µM with CAKI-1 renal; 0.104 µM and 0.0767 µM with HCT-116 colon; 0.0694 µM and 0.0685 µM in the assay with UACC-257 melanoma; 0.0403 µM and 0.0456 µM in the assay with MALME-3M melanoma. The TGI in the assay on OVCAR-8 ovarian was 0.0562 µM and 0.0453 µM; with IGROV1 ovarian, 0.0915 µM and 0.0964 µM; in the assay on KM12 colon it was 0.0707 µM and 0.166 µM; with RXF 393 renal, 0.0475 µM and 0.0496 µM.

Regarding `NC(=O)N/N=C(\CCC(=O)N(Cc1ccccc1)Cc1ccccc1)CC(=O)c1ccc(F)cc1`, the TGI in the assay with HOP-62 NSCLC, in the assay on MOLT-4 leukemia, with CAKI-1 renal, with HCT-116 colon, in the assay with UACC-257 melanoma and in the assay with MALME-3M melanoma was more than 100 µM in each case. The TGI with OVCAR-8 ovarian, with IGROV1 ovarian, in the assay with KM12 colon and with RXF 393 renal was more than 100 µM each time.
